Measured values as given in patent publication US20100316622A1, “DIAGNOSIS AND TREATMENT OF CARDIAC DISORDERS” (UNIVERSITY OF MIAMI, priority 2007, published 2010).
Like-named read-outs stand apart in the source and are kept apart here.

Experiments:
NOS1−/− myocytes [1] = assay: SR Ca2+ leakage protocol, Example 1 (0Na/0Ca buffer, caffeine); format: cell-based, mouse
Protocol: The hearts were cannulated and perfused trough the aorta with Ca^2+-free bicarbonate buffer containing (in mM) 120 NaCl, 5.4 KCl, 1.2 MgSO4, 1.2 NaH2PO4, 5.6 glucose, 20 NaHCO3, 10 2,3-butanedione monoxime (BDM; Sigma), and 5 taurine (Sigma), gassed with 95% O2-5% CO2, followed by enzymatic digestion with collagenase type 2 (1 mg/ml; Worthington) and protease type XIV (0.1 mg/ml; Sigma). Ventricular myocytes were obtained by mechanical disruption of digested hearts, filtration, centrifugation, and resuspension in a Tyrode solution containing (in mM) 0.125 mM CaCl2 144 NaCl, 1 MgCl2, 10 HEPES, 5.6 Glucose, 1.2 NaHPO4, 5 KCl, adjusted to a pH of 7.4 with NaOH. Then, the Ca^2+ content of the buffer was increased in steps until reaching 1.8 mM.
Myocytes were incubated with 5 μmol/L fura-2/AM (Molecular Probes, Eugene, Oreg.) then transferred to a Lucite chamber on the stage of an inverted microscope (Nikon TE 200), continuously superfused with Tyrode solution. Sarcomere length (SL) and Ca^2+ transients ([Ca^2+]i) were measured in myocytes stimulated at 1, 2, 4, 6 and 8 Hz. All experiments were conducted at 37° C.
Calcium leakage was assessed as described by Shannon et al (Shannon, T. R. et al., 2002. Circ. Res. 91:594-600). Ventricular myocytes were paced by field stimulation at the different frequencies in normal Tyrode until cellular Ca^2+ transients reached a steady state. After the last pulse, the superfusing solution was rapidly switched to 0Na^+-0Ca^2+ (Na^+ replaced by Li^+) Tyrode with or without 1 mmol/L tetracaine. In the control condition, [Ca^2+]i was monitored while 0Na^+-0Ca^2+ Tyrode buffer was applied at least 40 seconds, then a rapid pulse of 10 mm/L caffeine was added to cause SR Ca^2+ release. The difference between the basal and the peak total cytosolic [Ca^2+]i in the presence of caffeine is therefore [Ca^2+]T. In the test condition, 0Na+0Ca^2+ Tyrode was applied with tetracaine. In this condition, the leakage is blocked and the difference in [Ca^2+]T between tetracaine and control condition corresponds to diastolic leakage. […]

NOS1−/− myocytes [2] = assay: Force-frequency response: sarcomere shortening and calcium transients; format: cell-based, mouse; conditions: hydralazine 0.01, nitroglycerin 0.01, DETA/NO 0.1 mmol/L, 5 minutes incubation
Protocol: (§1) Isolated Myocytes Preparation: Cardiac myocytes were isolated and prepared from mouse hearts as described in detail by Khan et al. (Khan S. A. et al. Circ Res 2003;92:1322-1329). Sarcomere length (SL) and [Ca^2+]i were measured simultaneously in myocytes stimulated at 1, 2, 4, 6 and 8 Hz. […] All experiments were conducted at 37° C. SL was recorded with an IonOptix iCCD camera. Change in average SL was determined by Fast Fourier Transform analysis of the Z-line density trace to the frequency domain, and SL Shortening was calculated as follows: (diastolic SL—systolic SL)/diastolic SL. Intracellular calcium, was measured using the Ca^2+-sensitive dye Fura-2 and a dual-excitation spectrofluorometer (IonOptix), alternately excited with a xenon lamp at wavelengths of 365 and 380 nm The emission fluorescence was reflected through a barrier filter (510±15 nm) to a photomultiplier tube. The Fura-2 fluorescence ratio, i.e., the ratio of the photon live count detected by the excitation at 365 nm compared with 380 nm, represents [Ca^2]i.

wt myocytes = assay: as above; format: cell-based, mouse; conditions: hydralazine 0.01, nitroglycerin 0.01, DETA/NO 0.1 mmol/L, 5 minutes incubation
Protocol: as §1

NOS1−/− cardiomyocytes = assay: Sarcoplasmic reticulum Ca2+ stores by rapid caffeine infusion; conditions: for Sarcoplasmic reticulum Ca2+ content (% [Ca2+]i, percent change from baseline): NOS1−/− cardiomyocytes, 4 Hz, caffeine 10 mmol/L, untreated NOS1−/− 13.7±3.1%; for Ca2+ reserves: NOS1−/− myocytes at 4 Hz
Protocol: In order to assess calcium stores, caffeine (10 mmol/L) was rapidly infused after a 10 second pause following steady-state pacing at 1 and 4 Hz. In order to calculate the [Ca^2+]i of caffeine pulse was normalized as follows:
([Ca^2+]i at caffeine−[Ca^2+]i at pacing)/[Ca^2+]i at pacing×100.
Experiments were then repeated after incubating the cells with previously mentioned drugs.

[3] = biological target: T1, xanthine oxidoreductase (XOR) (Mus musculus, UniProt Q00519); assay: Xanthine oxidoreductase activity, Amplex red superoxide production in heart homogenates; format: biochemical
T1 construct: NOS 1^−/− cardiac homogenates as source of the enzyme; from tissue; host or cells: heart homogenate of NOS1-/- mice, passed through Sephadex G-25
Protocol: (§2) Xanthine Oxidoreductase activity: XOR activity was investigated by measuring uric acid and superoxide production. Heart homogenates were passed through a Sephadex G-25 column (GE Healthcare, Piscataway, N.J.) and XOR-dependent superoxide production was measured using Amplex red (Molecular Probes, Eugene, Oreg.) (0.05 mmol/L), horseradish peroxidase (HRP, 0.2 U/ml) and xanthine (0.1 mmol/L). In the assay, xanthine oxidase catalyzes the oxidation of xanthine to uric acid and superoxide. Superoxide spontaneously degrades to hydrogen peroxide (H2O2), and this, in the presence of HRP, reacts with Amplex Red to generate resurofin. Resurofin fluorescence was measured at 590 nm with excitation at 530-560 nm In parallel, the processed effluent was assessed spectrophotometrically at 295 nm for uric acid. The reaction mixture in 50 mM phosphate buffer, pH 7.4, contained 50 μl of the effluent, EDTA-Na2 (1 mmol/L), xanthine (0.2 mmol/L). […] The obtained values were plotted against a standard curve with known concentrations of XOR.

NOS1−/− myocytes [4] = assay: Assessment of SR Ca2+ leakage with tetracaine, Example 2; format: cell-based, mouse
Protocol: Assessment of SR Ca^2+ leakage: Calcium leakage was assessed as described by Shannon et al (Shannon T. R. et al. Circ Res 2002; 91:594-600). Ventricular myocytes were paced by field stimulation at the different frequencies in normal Tyrode until cellular Ca^2+ transients reached a steady state. After the last pulse, the superfusing solution was rapidly switched to 0Na^+-0Ca^2+(Na^+ replaced by Li^+) Tyrode with or without 1 mmol/L tetracaine. In the control condition, [Ca^2+]i was monitored while 0Na^+-0Ca^2+ Tyrode buffer was applied at least 40 seconds, rapid pulse of 10 mm/L caffeine was added to cause SR Ca^2+ release. The difference between the basal and the peak total cytosolic [Ca^2+]i in the presence of caffeine is, therefore, [Ca^2+]τ. In the test condition, 0Na^+0Ca^2+ Tyrode was applied with tetracaine. In this condition, the leakage is blocked and the difference in [Ca^2+]τ between tetracaine and control condition is diastolic leakage. To calculate [Ca^2+]τ in the SR, the total SR volume was considered 3% of the cell volume and the cytosol volume, 65% of the cell volume.

NADPH oxidase (NOX) [5] = assay: NOX-dependent superoxide production, lucigenin chemiluminescence in heart homogenates; format: biochemical, mouse; conditions: NOS1−/− cardiac homogenates
Protocol: NOX-dependent superoxide production: NADPH-dependent superoxide production was measured in heart homogenates using lucigenin (5 μmol/L)-enhanced chemiluminescence (β-NADPH 300 μmol/L; room temperature) on a microplate luminometer (Veritas, Turner Biosystems, Sunnyvale, Calif.). Briefly, proteins were diluted in modified Krebs-HEPES buffer. NADPH and lucigenin were added to wells just before reading. Chemiluminescence readings were expressed as integrated light units. […] Experiments also were performed in the presence of the flavoprotein inhibitor diphenyleneiodonium (DPI, 0.01 mmol/L).

[6] = biological target: T1, xanthine oxidoreductase (XOR); assay: Xanthine oxidoreductase activity, uric acid production in heart homogenates; format: biochemical; conditions: NOS1−/− cardiac homogenates, xanthine 0.2 mmol/L
Protocol: as §2

NADPH oxidase (NOX) [7] = assay: NADPH oxidase dependent ONOO− production, APF fluorescence in heart homogenates; format: biochemical, mouse; conditions: NOS1−/− heart extracts, NADPH 0.3 mmol/L; read-out: IC50, NOX-dependent peroxynitrite production
Protocol: NADPH oxidase dependent and XOR dependent ONOO— production: NADPH oxidase and XOR dependent ONOO— production was measured in heart homogenates using p-aminophenyl fluorescein (APF) as indicator. Proteins were diluted in modified Krebs-HEPES buffer and incubated with NADPH or xanthine for 30 minutes at 37° C. APF was added just before the fluorescence readings, measuring at 515 nm with excitation at 490 nm.

[8] = 100 μM, paced at 4 Hz, NOS1−/− myocytes

T1 sequence (Q00519 whole entry): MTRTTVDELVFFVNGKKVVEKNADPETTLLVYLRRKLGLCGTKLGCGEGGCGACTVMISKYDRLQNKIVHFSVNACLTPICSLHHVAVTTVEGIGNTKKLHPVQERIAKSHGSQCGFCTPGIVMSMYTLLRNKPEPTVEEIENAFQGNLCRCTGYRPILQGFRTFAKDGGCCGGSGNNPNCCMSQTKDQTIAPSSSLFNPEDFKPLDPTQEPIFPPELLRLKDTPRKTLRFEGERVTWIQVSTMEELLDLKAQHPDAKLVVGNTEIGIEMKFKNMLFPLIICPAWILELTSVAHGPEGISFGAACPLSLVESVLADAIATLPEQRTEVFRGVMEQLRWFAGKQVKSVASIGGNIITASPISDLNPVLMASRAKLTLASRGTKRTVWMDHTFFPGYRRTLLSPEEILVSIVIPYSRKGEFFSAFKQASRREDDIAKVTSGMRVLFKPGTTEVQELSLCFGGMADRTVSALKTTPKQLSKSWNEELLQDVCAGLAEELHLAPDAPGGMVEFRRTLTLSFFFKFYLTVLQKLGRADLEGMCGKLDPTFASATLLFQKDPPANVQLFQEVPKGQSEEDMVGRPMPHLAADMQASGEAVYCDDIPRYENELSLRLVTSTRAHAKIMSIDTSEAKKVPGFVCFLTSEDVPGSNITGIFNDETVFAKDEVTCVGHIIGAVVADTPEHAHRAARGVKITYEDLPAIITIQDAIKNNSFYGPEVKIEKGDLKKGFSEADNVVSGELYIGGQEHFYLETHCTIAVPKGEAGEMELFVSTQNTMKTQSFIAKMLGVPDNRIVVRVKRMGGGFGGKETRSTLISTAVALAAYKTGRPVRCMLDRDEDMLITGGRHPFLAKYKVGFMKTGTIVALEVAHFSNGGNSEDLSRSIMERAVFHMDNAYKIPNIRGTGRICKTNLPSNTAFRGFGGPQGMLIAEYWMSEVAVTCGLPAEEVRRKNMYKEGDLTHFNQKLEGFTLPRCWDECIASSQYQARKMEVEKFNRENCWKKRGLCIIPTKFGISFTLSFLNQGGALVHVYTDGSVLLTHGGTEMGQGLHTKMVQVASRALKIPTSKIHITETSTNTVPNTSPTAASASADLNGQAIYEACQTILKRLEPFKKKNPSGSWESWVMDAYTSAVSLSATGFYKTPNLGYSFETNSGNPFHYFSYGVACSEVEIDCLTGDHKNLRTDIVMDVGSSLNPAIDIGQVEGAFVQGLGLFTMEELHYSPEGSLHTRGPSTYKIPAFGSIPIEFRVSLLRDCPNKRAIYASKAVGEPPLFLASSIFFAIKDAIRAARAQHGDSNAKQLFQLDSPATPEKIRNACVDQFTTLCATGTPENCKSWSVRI

Row | SMILES | SR content (NOS1−/− myocytes [1]; [8]) | diastolic Ca2+ waves (NOS1−/− myocytes [1]; [8]) | suppressed SL and [Ca2+]i responses (NOS1−/− myocytes [2]) | sarcomere shortening or calcium transients (wt myocytes) | Sarcoplasmic reticulum Ca2+ content (% [Ca2+]i, percent change from baseline) (NOS1−/− cardiomyocytes) [%] | Ca2+ reserves (NOS1−/− cardiomyocytes) | IC50 ([3]; NOS1−/− cardiac homogenates, xanthine 0.1 mmol/L, read-out: IC50, Amplex red XOR activity) [µM] | Diastolic Ca2+ leak, drug alone (NOS1−/− myocytes [4]; nitroglycerin 10 μmol/L, hydralazine 100 μmol/L) | concentration that decreased NOX activity / NOX dependent superoxide production (NADPH oxidase (NOX) [5]) [mmol/L] | IC50 (NADPH oxidase (NOX) [5]; NADPH 0.3 mmol/L) [µM] | IC50 [3] [µM] | XOR enzyme activity (uric acid conversion) [6] | IC50 (NADPH oxidase (NOX) [7]) [µM] | spontaneous Ca2+ transients (waves) during 0Na+/0Ca2+ treatment (NOS1−/− myocytes [1]; NOS1−/− and NOS3/NOS1−/− myocytes, 1 mmol/L tetracaine) | spontaneous Ca2+ waves (NOS1−/− myocytes [4]; tetracaine 1 mmol/L)
1 | NCCN(CCN)/[N+]([O-])=N/O [DETA/NO, diethylenetriamine/nitric oxide adduct] | increased | did not reduce | restored towards levels similar to WT | no effect | 42.8±6.5 | increased | – | – | – | – | – | – | – | – | –
2 | NNc1nncc2ccccc12 [hydralazine] | – | – | – | no effect | 49.2±16.3 | – | 700 ± 300 | – | – | – | – | – | – | – | –
3 | O=[N+]([O-])OCC(CO[N+](=O)[O-])O[N+](=O)[O-] [nitroglycerin] | – | – | restored towards levels similar to WT | no effect | 42.8±6.5 | increased | – | not abolished | > 0.01 | 13 | 1000 ± 400 | did display XOR-inhibitory activity | 1300 ± 400 | – | –
4 | CCCCNc1ccc(C(=O)OCCN(C)C)cc1 [tetracaine] | – | – | – | – | – | – | – | – | – | – | – | – | – | abolished | abolished
